Data on three compounds can be found in ChEMBL document CHEMBL3994652, “Cytotoxic clerodane diterpenoids from Croton crassifolius” (Bioorg Med Chem Lett, 2017).

One may read the pIC50 as −log10 of the IC50, conventionally taken in molar units.

pIC50: −log10 of the molar value. The source made the active and inactive calls. The calls are words filed in the database; no cut-off is given here.

The test system of experiment [1] is HepG2. Briefly: Cytotoxicity against human HepG2 cells assessed as growth inhibition at 100 uM after 48 hrs by MTT assay. The format is functional, cell-based.
Experiment [2] concerns Hep 3B2. The experiment in a line: Cytotoxicity against human Hep3B cells assessed as growth inhibition at 100 uM after 48 hrs by MTT assay. The format is functional, cell-based. On the technique in general: Tetrazolium assays rely on reduction of a dye to a coloured formazan, in cell work by metabolically active cells.
For experiment [3], the system named is HepG2. Briefly: Cytotoxicity against human HepG2 cells assessed as growth inhibition after 48 hrs by MTT assay. The format is functional, cell-based. Particulars: HepG2, 48 h.
Experiment [4] concerns Hep 3B2. The experiment in a line: Cytotoxicity against human Hep3B cells assessed as growth inhibition after 48 hrs by MTT assay. Format: functional, cell-based.
The subject of experiment [5] is Hep 3B2. Briefly: Induction of apoptosis in human Hep3B cells assessed as cell shrinkage at 20 uM after 48 hrs by acridine orange dye-based fluorescence microscopy. Format: functional.
Experiment [6] relates to Hep 3B2. The experiment in a line: Induction of apoptosis in human Hep3B cells assessed as formation of apoptotic bodies at 20 uM after 48 hrs by acridine orange dye-based fluorescence microscopy. The format is functional, cell-based.
Experiment [7] concerns Hep 3B2. Briefly: Induction of apoptosis in human Hep3B cells assessed as chromatin condensation at 20 uM after 48 hrs by acridine orange dye-based fluorescence microscopy. Format: functional, cell-based.
Experiment [8] deals with Hep 3B2. The experiment in a line: Induction of apoptosis in human Hep3B cells assessed as reduction in pro-caspase 3 level at 10 to 40 uM after 48 hrs by Western blot method. The format is functional, cell-based. On the technique in general: In western blotting, separated proteins are transferred to a membrane and probed.
The test system of experiment [9] is Hep 3B2. The experiment in a line: Induction of apoptosis in human Hep3B cells assessed as increase in cleaved caspase 3 level at 10 to 40 uM after 48 hrs by Western blot method. The format is functional, cell-based.
Experiment [10] concerns Hep 3B2. The experiment in a line: Induction of apoptosis in human Hep3B cells assessed as cleaved PARP level after 48 hrs by Western blot method. The format is functional, cell-based.

Regarding `C[C@H]1C[C@@H]2OC(=O)[C@]3(C)CCCC(=C23)[C@]12C[C@H](c1ccoc1)OC2=O`, the “growth inhibition (GI)” value with HepG2 [1] and in the experiment with Hep 3B2 [2] was “Active” each time. The pIC50 with HepG2 [3] was 4.75; in the experiment with Hep 3B2 [4] it was 4.38. In addition, the result in the experiment with Hep 3B2 [5], with Hep 3B2 [6], with Hep 3B2 [7], in the experiment on Hep 3B2 [8] and in the experiment with Hep 3B2 [9] was Active. The Activity result in the experiment on Hep 3B2 [10] is “Dose-dependent effect”.
For the compound `COC(=O)[C@@]1(C)CC(=O)C=C2C1=CC[C@@H](C)[C@]2(C)CC(=O)c1ccoc1`, the “growth inhibition (GI)” value in the experiment on HepG2 [1] is “Active”. For the same compound, the pIC50 in the experiment on Hep 3B2 [4] was 4.29.
In the case of `O=c1[nH]cc(F)c(=O)[nH]1` [FLUOROURACIL], the pIC50 in the experiment with Hep 3B2 [4] was 4.30.
